target: CB1 (mutant) (Homo sapiens, UniProt P21554); assay: R-SAT functional receptor assay, CB1 (mutant, truncated after amino acid 417); assay type: cell-based; conditions: Appendix A; R-SAT CB1; receptor form (mutant or wild-type) not stated
Sequence (P21554 1-417, change not shown): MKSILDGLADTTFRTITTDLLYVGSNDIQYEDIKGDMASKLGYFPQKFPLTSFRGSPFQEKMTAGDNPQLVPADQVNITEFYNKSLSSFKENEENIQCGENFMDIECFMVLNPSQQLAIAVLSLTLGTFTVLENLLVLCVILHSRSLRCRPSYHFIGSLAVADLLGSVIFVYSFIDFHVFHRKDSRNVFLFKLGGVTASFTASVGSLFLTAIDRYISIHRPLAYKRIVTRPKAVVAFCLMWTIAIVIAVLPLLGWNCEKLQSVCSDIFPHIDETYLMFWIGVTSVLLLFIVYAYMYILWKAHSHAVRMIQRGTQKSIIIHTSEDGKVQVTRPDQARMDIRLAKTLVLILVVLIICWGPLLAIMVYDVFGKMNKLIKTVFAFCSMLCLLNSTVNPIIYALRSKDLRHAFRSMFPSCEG

pIC50	SMILES
1.0	CON(C)C(=O)c1ccc2c(c1)N=C(c1ccccc1Cl)c1ccccc1S2
1.0	CONC(=O)c1ccc2c(c1)N=C(c1ncccc1C)c1ccccc1S2
8.2	O=C(NCc1cccnc1)c1ccc2c(c1)N=C(c1ccc(Cl)c(Cl)c1)c1ccccc1S2 [drawing 687]

same assay, conditions: Appendix A; R-SAT CB1; receptor form (mutant or wild-type) not stated; read-out: pIC50 (converted)

SMILES	IC50 [nM]
O=C(NCCC(F)(F)F)c1ccc2c(c1)N=C(c1ccc(Cl)s1)c1ccccc1S2 [drawing 663]	6.31
CCCC1=NC2=C(CCC(C(=O)NCCN(CC)CCNc3cc(Cl)ccc3C)=C2)Sc2ccccc21	158
Cc1ccc(N2CCN(C(=O)c3ccc4c(c3)N=C(CC(C)C)c3ccccc3S4)CC2)c(C)c1	251
O=C(NNC(O)c1ccc2c(c1)N=C(c1cccc(Br)c1)c1ccccc1S2)c1ccccc1 (stereo not shown)	100
CCCC1=Nc2cc(C(=O)NCCCN3CCN(c4ccc(OC)cc4)CC3)ccc2Sc2ccccc21	2510
O=C(NCCc1ccccc1)c1ccc2c(c1)N=C(c1ccc(Cl)cc1)c1ccccc1S2 [drawing 743]	7.94
Cc1ccsc1C1=Nc2cc(C(=O)NCCc3ccncc3)ccc2Sc2ccccc21	100
CON(C)C(=O)c1ccc2c(c1)N=C(c1sccc1C)c1ccccc1S2	794
CCCCN(C)CCCNC(=O)c1ccc2c(c1)N=C(CCC)c1ccccc1S2	794
O=C(NCCc1cccnc1)c1ccc2c(c1)N=C(c1ccc(Cl)s1)c1ccccc1S2 [drawing 1029]	25.1
O=C(NC1CCC(F)(F)CC1)c1ccc2c(c1)N=C(c1ccccn1)c1ccccc1S2 [drawing 564]	50.1
O=C(NN1CCCCC1)c1ccc2c(c1)NC(C1CCCCC1)c1ccccc1S2 (stereo not shown)	501
O=C(NN1CCCCC1)c1ccc2c(c1)N=C(N1CCCCC1)c1ccccc1S2 [drawing 610]	50.1
CCCCN(C)C(=O)c1ccc2c(c1)N=C(c1cccc(F)c1)c1ccccc1S2	63.1
CCONC(=O)c1ccc2c(c1)N=C(c1cccc(Cl)c1)c1ccccc1S2	79.4

Continued, values first:

IC50 [nM]	SMILES
6.31	O=C(NCc1ccccc1)c1ccc2c(c1)N=C(N1CCCCC1)c1ccccc1S2 [drawing 681]
25.1	O=C(NCc1ccccc1)c1ccc2c(c1)N=C(c1ccccc1F)c1ccccc1S2 [drawing 1015]
158	O=C(NC1CCCC1)c1ccc2c(c1)N=C(c1ccccn1)c1ccccc1S2
25.1	O=C(NCc1cccnc1)c1ccc2c(c1)N=C(c1ccc(Br)cc1)c1ccccc1S2 [drawing 1007]
20	O=C(NN1CCCCC1)c1ccc2c(c1)N=C(c1ccc(Cl)cn1)c1ccccc1S2 [drawing 959]
15.8	O=C(NCCc1cccc(Cl)c1)c1ccc2c(c1)N=C(c1ccc(F)cc1)c1ccccc1S2 [drawing 919]
200	O=C(NN1CCCC1)c1ccc2c(c1)N=C(c1ccccc1F)c1ccccc1S2
15.8	O=C(NCc1ccc(F)cc1)c1ccc2c(c1)N=C(C1CCCCC1)c1ccccc1S2(=O)=O [drawing 917]
31.6	O=C(NCc1cccnc1)c1ccc2c(c1)N=C(c1ccc(Cl)cc1)c1ccccc1S2 [drawing 1093]
5.01	O=C(NCCc1ccc(Cl)cc1)c1ccc2c(c1)N=C(c1ccc(Cl)cc1)c1ccccc1S2 [drawing 631]
25.1	O=C(NCc1cccs1)c1ccc2c(c1)N=C(c1ccccn1)c1ccccc1S2 [drawing 1037]
398	NS(=O)(=O)c1ccc(CNC(=O)C2C=C3N=C(N4CCCCC4)c4ccccc4SC3=CC2)cc1 (stereo not shown)
6.31	O=C(NCc1cccc(Cl)c1)c1ccc2c(c1)N=C(N1CCC(F)CC1)c1ccccc1S2 [drawing 679]
31.6	CC(C)CCNC(=O)c1ccc2c(c1)N=C(c1ccccc1F)c1ccccc1S2 [drawing 1067]
50.1	O=C(NCCc1ccccc1)c1ccc2c(c1)N=C(c1ccccc1F)c1ccccc1S2 [drawing 600]
39.8	CCCCNC(=O)c1ccc2c(c1)N=C(c1ccccc1F)c1ccccc1S2 [drawing 1129]
63.1	O=C(NN1CCCCCC1)c1ccc2c(c1)N=C(c1ccc(Cl)cc1)c1ccccc1S2 [drawing 624]

same assay, conditions: Appendix A; R-SAT CB1; receptor form not stated; relative to SR141716 (100%)

% Inhibition [%]	SMILES
114	O=C(NCc1cccnc1)c1ccc2c(c1)N=C(c1ccc(Cl)c(Cl)c1)c1ccccc1S2 [drawing 687]

same assay, conditions: Appendix A; R-SAT CB1; receptor form not stated; relative to SR141716 (100%); read-out: % Inhibition

SMILES	Emax [%]
O=C(NCCC(F)(F)F)c1ccc2c(c1)N=C(c1ccc(Cl)s1)c1ccccc1S2 [drawing 663]	95
CCCC1=NC2=C(CCC(C(=O)NCCN(CC)CCNc3cc(Cl)ccc3C)=C2)Sc2ccccc21	113
Cc1ccc(N2CCN(C(=O)c3ccc4c(c3)N=C(CC(C)C)c3ccccc3S4)CC2)c(C)c1	105
O=C(NNC(O)c1ccc2c(c1)N=C(c1cccc(Br)c1)c1ccccc1S2)c1ccccc1 (stereo not shown)	76
CCCC1=Nc2cc(C(=O)NCCCN3CCN(c4ccc(OC)cc4)CC3)ccc2Sc2ccccc21	79
O=C(NCCc1ccccc1)c1ccc2c(c1)N=C(c1ccc(Cl)cc1)c1ccccc1S2 [drawing 743]	110
Cc1ccsc1C1=Nc2cc(C(=O)NCCc3ccncc3)ccc2Sc2ccccc21	101
CON(C)C(=O)c1ccc2c(c1)N=C(c1ccccc1Cl)c1ccccc1S2	10
CON(C)C(=O)c1ccc2c(c1)N=C(c1sccc1C)c1ccccc1S2	42
CCCCN(C)CCCNC(=O)c1ccc2c(c1)N=C(CCC)c1ccccc1S2	124
O=C(NCCc1cccnc1)c1ccc2c(c1)N=C(c1ccc(Cl)s1)c1ccccc1S2 [drawing 1029]	110
O=C(NC1CCC(F)(F)CC1)c1ccc2c(c1)N=C(c1ccccn1)c1ccccc1S2 [drawing 564]	79
O=C(NN1CCCCC1)c1ccc2c(c1)NC(C1CCCCC1)c1ccccc1S2 (stereo not shown)	43
O=C(NN1CCCCC1)c1ccc2c(c1)N=C(N1CCCCC1)c1ccccc1S2 [drawing 610]	104
CCCCN(C)C(=O)c1ccc2c(c1)N=C(c1cccc(F)c1)c1ccccc1S2	90
CCONC(=O)c1ccc2c(c1)N=C(c1cccc(Cl)c1)c1ccccc1S2	90
CONC(=O)c1ccc2c(c1)N=C(c1ncccc1C)c1ccccc1S2	8

Second part, the compound after the results:

Emax [%]	SMILES
110	O=C(NCc1ccccc1)c1ccc2c(c1)N=C(N1CCCCC1)c1ccccc1S2 [drawing 681]
96	O=C(NCc1ccccc1)c1ccc2c(c1)N=C(c1ccccc1F)c1ccccc1S2 [drawing 1015]
81	O=C(NC1CCCC1)c1ccc2c(c1)N=C(c1ccccn1)c1ccccc1S2
106	O=C(NCc1cccnc1)c1ccc2c(c1)N=C(c1ccc(Br)cc1)c1ccccc1S2 [drawing 1007]
112	O=C(NN1CCCCC1)c1ccc2c(c1)N=C(c1ccc(Cl)cn1)c1ccccc1S2 [drawing 959]
98	O=C(NCCc1cccc(Cl)c1)c1ccc2c(c1)N=C(c1ccc(F)cc1)c1ccccc1S2 [drawing 919]
69	O=C(NN1CCCC1)c1ccc2c(c1)N=C(c1ccccc1F)c1ccccc1S2
120	O=C(NCc1ccc(F)cc1)c1ccc2c(c1)N=C(C1CCCCC1)c1ccccc1S2(=O)=O [drawing 917]
88	O=C(NCc1cccnc1)c1ccc2c(c1)N=C(c1ccc(Cl)cc1)c1ccccc1S2 [drawing 1093]
104	O=C(NCCc1ccc(Cl)cc1)c1ccc2c(c1)N=C(c1ccc(Cl)cc1)c1ccccc1S2 [drawing 631]
118	O=C(NCc1cccs1)c1ccc2c(c1)N=C(c1ccccn1)c1ccccc1S2 [drawing 1037]
78	NS(=O)(=O)c1ccc(CNC(=O)C2C=C3N=C(N4CCCCC4)c4ccccc4SC3=CC2)cc1 (stereo not shown)
108	O=C(NCc1cccc(Cl)c1)c1ccc2c(c1)N=C(N1CCC(F)CC1)c1ccccc1S2 [drawing 679]
117	CC(C)CCNC(=O)c1ccc2c(c1)N=C(c1ccccc1F)c1ccccc1S2 [drawing 1067]
98	O=C(NCCc1ccccc1)c1ccc2c(c1)N=C(c1ccccc1F)c1ccccc1S2 [drawing 600]
96	CCCCNC(=O)c1ccc2c(c1)N=C(c1ccccc1F)c1ccccc1S2 [drawing 1129]
103	O=C(NN1CCCCCC1)c1ccc2c(c1)N=C(c1ccc(Cl)cc1)c1ccccc1S2 [drawing 624]
